Key:
[1] = system: recombinant NL4-3 virus (Renilla luciferase) in MT-2 cells; test: HIV cell culture assay (antiviral activity, luciferase readout); type: cell-based; details: Renilla, NL43
Method in brief: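 Antiviral EC50 was derived via the median effect equation from luciferase signal. The signal came from MT-2 cultures infected for 4–5 days with a nef-deleted, Renilla luciferase-expressing NL4-3 reporter virus (made in 293T cells) in the presence of compound dilutions.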

[2] = Compound cytotoxicity, XTT-based colorimetric assay; type: cell-based; details: human; uninfected MT2 cells, day 4, XTT
Method in brief: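 Run under the antiviral-assay protocol but without virus. Viability was read on day 4 and CC50 values were derived from the readout.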

Question: Which results are given for `Cc1nnc(-c2ccc3c(=O)n(-c4ccc(Cl)c5c(NS(=O)(=O)C6CC6)nn(CC(F)F)c45)c([C@H](Cc4cc(F)cc(F)c4)NC(=O)Cn4nc(C(F)F)c5c4C(F)(F)[C@@H]4C[C@H]54)nc3c2)nc1C` (atropisomer, axis not shown; (P)) [Example 87, N—((S)-1-((3P)-3-(4-chloro-3-(cyclopropanesulfonamido)-1-(2,2-difluoroethyl)-1H-indazol-7-yl)-7-(5,6-dimethyl-1,2,4-triazin-3-yl)-4-oxo-3,4-dihydroquinazolin-2-yl)-2-(3,5-difluorophenyl)ethyl)-2-((3bS,4aR)-3-(difluoromethyl)-5,5-difluoro-3b,4,4a,5-tetrahydro-1H-cyclopropa[3,4]cyclopenta[1,2-c]pyrazol-1-yl)acetamide]?
Answer: EC50 [1]: 0.058 nM; CC50 at 4 days [2]: > 500 nM

Question: What does the source list for `CC(C)c1nccc(-c2ccc3c(=O)n(-c4ccc(Cl)c5c(NS(=O)(=O)C6CC6)nn(CC(F)F)c45)c([C@H](Cc4cc(F)cc(F)c4)NC(=O)Cn4nc(C(F)F)c5c4C(F)(F)[C@@H]4C[C@H]54)nc3c2)n1` (atropisomer, axis not shown; (P)) [Example 91, N—((S)-1-((3P)-3-(4-chloro-3-(cyclopropanesulfonamido)-1-(2,2-difluoroethyl)-1H-indazol-7-yl)-7-(2-isopropylpyrimidin-4-yl)-4-oxo-3,4-dihydroquinazolin-2-yl)-2-(3,5-difluorophenyl)ethyl)-2-((3bS,4aR)-3-(difluoromethyl)-5,5-difluoro-3b,4,4a,5-tetrahydro-1H-cyclopropa[3,4]cyclopenta[1,2-c]pyrazol-1-yl)acetamide]?
Answer: EC50 [1]: 0.19 nM; CC50 at 4 days [2]: > 500 nM

Question: Which results are given for `Cn1nc(NS(C)(=O)=O)c2c(Cl)ccc(-n3c([C@H](Cc4cc(F)cc(F)c4)NC(=O)Cn4nc(C(F)F)c5c4C(F)(F)[C@@H]4C[C@H]54)nc4cc(-c5nccc(C(F)F)n5)ccc4c3=O)c21` (atropisomer, axis not shown; (P)) [Example 56, N—((S)-1-((3P)-3-(4-chloro-1-methyl-3-(methylsulfonamido)-1H-indazol-7-yl)-7-(4-(difluoromethyl)pyrimidin-2-yl)-4-oxo-3,4-dihydroquinazolin-2-yl)-2-(3,5-difluorophenyl)ethyl)-2-((3bS,4aR)-3-(difluoromethyl)-5,5-difluoro-3b,4,4a,5-tetrahydro-1H-cyclopropa[3,4]cyclopenta[1,2-c]pyrazol-1-yl)acetamide]?
Answer: EC50 [1]: 0.056 nM; CC50 at 4 days [2]: > 500 nM

Question: What does the source list for `COc1cccnc1-c1ccc2c(=O)n(-c3ccc(Cl)c4c(NS(C)(=O)=O)nn(C)c34)c([C@H](Cc3cc(F)cc(F)c3)NC(=O)Cn3nc(C(F)F)c4c3C(F)(F)[C@@H]3C[C@H]43)nc2c1` (atropisomer, axis not shown; (P)) [Example 11, N—((S)-1-((3P)-3-(4-chloro-1-methyl-3-(methylsulfonamido)-1H-indazol-7-yl)-7-(3-methoxypyridin-2-yl)-4-oxo-3,4-dihydroquinazolin-2-yl)-2-(3,5-difluorophenyl)ethyl)-2-((3bS,4aR)-3-(difluoromethyl)-5,5-difluoro-3b,4,4a,5-tetrahydro-1H-cyclopropa[3,4]cyclopenta[1,2-c]pyrazol-1-yl)acetamide]?
Answer: EC50 [1]: 0.12 nM; CC50 at 4 days [2]: > 500 nM

Question: Which EC50 [1] does the source give for `Cc1ncc(-c2ccc3c(=O)n(-c4ccc(Cl)c5c(NS(C)(=O)=O)nn(CC(F)(F)F)c45)c([C@H](Cc4cc(F)cc(F)c4)NC(=O)Cn4nc(C(F)F)c5c4C(F)(F)[C@@H]4C[C@H]54)nc3c2)s1` (atropisomer, axis not shown) [Example 114] here?
Answer: 0.15 nM

Question: And the CC50 at 4 days [2]?
Answer: > 500 nM

Question: With `Cc1cc(C(C)C)nc(-c2ccc3c(=O)n(-c4ccc(Cl)c5c(NS(C)(=O)=O)nn(C)c45)c([C@H](Cc4cc(F)cc(F)c4)NC(=O)Cn4nc(C(F)F)c5c4C(F)(F)[C@@H]4C[C@H]54)nc3c2)n1` (atropisomer, axis not shown; (P)) [Example 37, N—((S)-1-((3P)-3-(4-chloro-1-methyl-3-(methylsulfonamido)-1H-indazol-7-yl)-7-(4-isopropyl-6-methylpyrimidin-2-yl)-4-oxo-3,4-dihydroquinazolin-2-yl)-2-(3,5-difluorophenyl)ethyl)-2-((3bS,4aR)-3-(difluoromethyl)-5,5-difluoro-3b,4,4a,5-tetrahydro-1H-cyclopropa[3,4]cyclopenta[1,2-c]pyrazol-1-yl)acetamide] as the compound, how does the EC50 [1] read?
Answer: 0.16 nM

Question: What about the CC50 at 4 days [2] of the same compound?
Answer: > 500 nM

Question: With `Cc1cc(C)nc(-c2ccc3c(=O)n(-c4ccc(Cl)c5c(NS(=O)(=O)C6CC6)nn(CC(F)F)c45)c([C@H](Cc4cc(F)cc(F)c4)NC(=O)Cn4nc(C(F)F)c5c4C(F)(F)[C@@H]4C[C@H]54)nc3c2)c1` (atropisomer, axis not shown; (P)) [Example 83, N—((S)-1-((3P)-3-(4-chloro-3-(cyclopropanesulfonamido)-1-(2,2-difluoroethyl)-1H-indazol-7-yl)-7-(4,6-dimethylpyridin-2-yl)-4-oxo-3,4-dihydroquinazolin-2-yl)-2-(3,5-difluorophenyl)ethyl)-2-((3bS,4aR)-3-(difluoromethyl)-5,5-difluoro-3b,4,4a,5-tetrahydro-1H-cyclopropa[3,4]cyclopenta[1,2-c]pyrazol-1-yl)acetamide] as the compound, how does the EC50 [1] read?
Answer: 0.44 nM

Question: What about the CC50 at 4 days [2] of the same compound?
Answer: > 500 nM

Question: With `Cc1cc(-c2ccc3c(=O)n(-c4ccc(Cl)c5c(NS(=O)(=O)C6CC6)nn(CC(F)F)c45)c([C@H](Cc4cc(F)cc(F)c4)NC(=O)Cn4nc(C(F)F)c5c4C(F)(F)[C@@H]4C[C@H]54)nc3c2)nc(C)n1` (atropisomer, axis not shown; (P)) [Example 85, N—((S)-1-((3P)-3-(4-chloro-3-(cyclopropanesulfonamido)-1-(2,2-difluoroethyl)-1H-indazol-7-yl)-7-(2,6-dimethylpyrimidin-4-yl)-4-oxo-3,4-dihydroquinazolin-2-yl)-2-(3,5-difluorophenyl)ethyl)-2-((3bS,4aR)-3-(difluoromethyl)-5,5-difluoro-3b,4,4a,5-tetrahydro-1H-cyclopropa[3,4]cyclopenta[1,2-c]pyrazol-1-yl)acetamide] as the compound, how does the EC50 [1] read?
Answer: 0.088 nM

Question: What about the CC50 at 4 days [2] of the same compound?
Answer: > 500 nM

Question: For `CS(=O)(=O)Nc1nn(CC(F)F)c2c(-n3c([C@H](Cc4cc(F)cc(F)c4)NC(=O)Cn4nc(C(F)F)c5c4C(F)(F)[C@@H]4C[C@H]54)nc4cc(-c5nccc(C(F)(F)F)n5)ccc4c3=O)ccc(Cl)c12` (atropisomer, axis not shown) [Example 128, N-[(1S)-1-{3-[4-chloro-1-(2,2-difluoroethyl)-3-methanesulfonamido-1H-indazol-7-yl]-4-oxo-7-[4-(trifluoromethyl)pyrimidin-2-yl]-3,4-dihydroquinazolin-2-yl}-2-(3,5-difluorophenyl)ethyl]-2-[(2S,4R)-9-(difluoromethyl)-5,5-difluoro-7,8-diazatricyclo[4.3.0.0^2,^4]nona-1(6),8-dien-7-yl]acetamide], which EC50 [1] is on record?
Answer: 0.079 nM

Question: And the CC50 at 4 days [2]?
Answer: > 500 nM

Question: For `Cn1nc(NS(C)(=O)=O)c2c(Cl)ccc(-n3c([C@H](Cc4cc(F)cc(F)c4)NC(=O)Cn4nc(C(F)F)c5c4C(F)(F)[C@@H]4C[C@H]54)nc4cc(-c5ccnnc5)ccc4c3=O)c21` (atropisomer, axis not shown; (P)) [Example 31, N—((S)-1-((3P)-3-(4-chloro-1-methyl-3-(methylsulfonamido)-1H-indazol-7-yl)-4-oxo-7-(pyridazin-4-yl)-3,4-dihydroquinazolin-2-yl)-2-(3,5-difluorophenyl)ethyl)-2-((3bS,4aR)-3-(difluoromethyl)-5,5-difluoro-3b,4,4a,5-tetrahydro-1H-cyclopropa[3,4]cyclopenta[1,2-c]pyrazol-1-yl)acetamide], which EC50 [1] is on record?
Answer: 0.29 nM

Question: And the CC50 at 4 days [2]?
Answer: > 500 nM

Question: Which results are given for `Cn1nc(NS(C)(=O)=O)c2c(Cl)ccc(-n3c([C@H](Cc4cc(F)cc(F)c4)NC(=O)Cn4nc(C(F)F)c5c4C(F)(F)[C@@H]4C[C@H]54)nc4cc(-c5cc(C(F)(F)F)ccn5)ccc4c3=O)c21` (atropisomer, axis not shown; (P)) [Example 80, N—((S)-1-((3P)-3-(4-chloro-1-methyl-3-(methylsulfonamido)-1H-indazol-7-yl)-4-oxo-7-(4-(trifluoromethyl)pyridin-2-yl)-3,4-dihydroquinazolin-2-yl)-2-(3,5-difluorophenyl)ethyl)-2-((3bS,4aR)-3-(difluoromethyl)-5,5-difluoro-3b,4,4a,5-tetrahydro-1H-cyclopropa[3,4]cyclopenta[1,2-c]pyrazol-1-yl)acetamide]?
Answer: EC50 [1]: 0.2 nM; CC50 at 4 days [2]: > 100 nM

Question: What does the source list for `COc1ccc(-c2ccc3c(=O)n(-c4ccc(Cl)c5c(NS(C)(=O)=O)nn(CC(F)F)c45)c([C@H](Cc4cc(F)cc(F)c4)NC(=O)Cn4nc(C(F)F)c5c4C(F)(F)[C@@H]4C[C@H]54)nc3c2)nn1` (atropisomer, axis not shown) [Example 129, N-[(1S)-1-{3-[4-chloro-1-(2,2-difluoroethyl)-3-methanesulfonamido-1H-indazol-7-yl]-7-(6-methoxypyridazin-3-yl)-4-oxo-3,4-dihydroquinazolin-2-yl}-2-(3,5-difluorophenyl)ethyl]-2-[(2S,4R)-9-(difluoromethyl)-5,5-difluoro-7,8-diazatricyclo[4.3.0.0^2,^4]nona-1(6),8-dien-7-yl]acetamide]?
Answer: EC50 [1]: 0.054 nM; CC50 at 4 days [2]: > 500 nM

Question: Which EC50 [1] does the source give for `Cn1nc(NS(C)(=O)=O)c2c(Cl)ccc(-n3c([C@H](Cc4cc(F)cc(F)c4)NC(=O)Cn4nc(C(F)F)c5c4C(F)(F)[C@@H]4C[C@H]54)nc4cc(-c5nccc(C(F)(F)F)n5)ccc4c3=O)c21` (atropisomer, axis not shown; (P)) [Example 3, N—((S)-1-((3P)-3-(4-chloro-1-methyl-3-(methylsulfonamido)-1H-indazol-7-yl)-4-oxo-7-(4-(trifluoromethyl)pyrimidin-2-yl)-3,4-dihydroquinazolin-2-yl)-2-(3,5-difluorophenyl)ethyl)-2-((3bS,4aR)-3-(difluoromethyl)-5,5-difluoro-3b,4,4a,5-tetrahydro-1H-cyclopropa[3,4]cyclopenta[1,2-c]pyrazol-1-yl)acetamide] here?
Answer: 0.1 nM

Question: What about the CC50 at 4 days [2] of the same compound?
Answer: > 500 nM

Reference: US11541055B2, “Inhibitors of human immunodeficiency virus replication” (ViiV Healthcare UK (No. 5) LIMITED, priority 2018, dated 2023)
